# Measurements as given in patent publication US20110281896A1, “OPTICALLY PURE QUINAZOLINE COMPOUNDS” (Jiangsu Hansoh Pharmaceutical Co. Ltd, priority 2009, published 2011).
# Experiments:
# MCF-7 = test: Antitumor activity in vitro, SRB cell proliferation inhibition; format: cell-based; settings: 72 h incubation, Logit method
# Description: (§1) Evaluation of Antitumor Activity In Vitro
# (§2) Cell Strains: A431; MCF-7
# (§3) Experiment Design: Cells were incubated with different concentrations of compounds for 72 hours. The inhibition of cell proliferation by the compounds was evaluated by SRB, followed by calculation of the inhibition rate. Then, value of IC50 was calculated by using-Logit method base on the inhibition rate and used to compare in vitro antitumor activity of the compounds.
# (§4) Method for Calculating the Inhibition Rate: Inhibition rate (%)=(OD value of control group−OD value of drug group)/OD value of control group×100%
# A431 = test: as above; format: cell-based; settings: 72 h incubation, Logit method
# Description: as §1, §2, §3, §4
# [1] = Homo sapiens, MCF7, MCF-7 cells
# [2] = Homo sapiens, A-431, A431 cells
Structure (SMILES),IC50 (MCF-7; [1]),IC50 (A431; [2]),IC50 (MCF-7; MCF-7 cells),IC50 (A431; A431 cells)
"C=CCN[C@@H](CS(C)(=O)=O)c1ccc(-c2ccc3ncnc(Nc4ccc(OCc5cccc(F)c5)c(Cl)c4)c3c2)o1 [Compound 114, (R)—N-(4-(3-fluorobenzyl-oxy)-3-chlorophenyl)-6-(5-(1-(allyl-amino)-2-(methylsulfonyl)ethyl)furan-2-yl)quinazolin-4-amine]",7.9 µM,0.489 µM,–,–
"C#CCN[C@@H](CS(C)(=O)=O)c1ccc(-c2ccc3ncnc(Nc4ccc(OCc5cccc(F)c5)c(Cl)c4)c3c2)o1 [Compound 115, (R)—N-(4-(3-fluorobenzyl-oxy)-3-chlorophenyl)-6-(5-(1-(propargyl-amino)-2-(methylsulfonyl)ethyl)furan-2-yl)quinazolin-4-amine]",7.58 µM,0.536 µM,–,–
CON[C@@H](CS(C)(=O)=O)c1ccc(-c2ccc3ncnc(Nc4ccc(OCc5cccc(F)c5)c(Cl)c4)c3c2)o1 [Compound 116],–,–,4.8 µM,0.441 µM
CON(C)[C@@H](CS(C)(=O)=O)c1ccc(-c2ccc3ncnc(Nc4ccc(OCc5cccc(F)c5)c(Cl)c4)c3c2)o1 [Compound 117],–,–,7.63 µM,0.636 µM
"CS(=O)(=O)C[C@H](N)c1cnc(-c2ccc3ncnc(Nc4ccc(OCc5cccc(F)c5)c(Cl)c4)c3c2)s1 [Compound 118, (S)—N-(4-(3-fluorobenzyl-oxy)-3-chlorophenyl)-6-(5-(1-(amino)-2-(methylsulfonyl)ethyl)thiazole-2-yl)quinazolin-4-amine]",6.69 µM,0.525 µM,–,–
CN[C@@H](CS(C)(=O)=O)c1cnc(-c2ccc3ncnc(Nc4ccc(OCc5cccc(F)c5)c(Cl)c4)c3c2)s1 [Compound 119],–,–,6.12 µM,0.588 µM
CCN[C@@H](CS(C)(=O)=O)c1cnc(-c2ccc3ncnc(Nc4ccc(OCc5cccc(F)c5)c(Cl)c4)c3c2)s1 [Compound 120],–,–,7.56 µM,0.658 µM
CCCN[C@@H](CS(C)(=O)=O)c1cnc(-c2ccc3ncnc(Nc4ccc(OCc5cccc(F)c5)c(Cl)c4)c3c2)s1 [Compound 121],–,–,6.39 µM,0.465 µM
CN(C)[C@@H](CS(C)(=O)=O)c1cnc(-c2ccc3ncnc(Nc4ccc(OCc5cccc(F)c5)c(Cl)c4)c3c2)s1 [Compound 123],–,–,6.33 µM,0.499 µM
CCN(CC)[C@@H](CS(C)(=O)=O)c1cnc(-c2ccc3ncnc(Nc4ccc(OCc5cccc(F)c5)c(Cl)c4)c3c2)s1 [Compound 124],–,–,7.98 µM,0.685 µM
CCCN(CCC)[C@@H](CS(C)(=O)=O)c1cnc(-c2ccc3ncnc(Nc4ccc(OCc5cccc(F)c5)c(Cl)c4)c3c2)s1 [Compound 125],–,–,7.76 µM,0.523 µM
CCN(C)[C@@H](CS(C)(=O)=O)c1cnc(-c2ccc3ncnc(Nc4ccc(OCc5cccc(F)c5)c(Cl)c4)c3c2)s1 [Compound 126],–,–,7.76 µM,0.488 µM
C=CCN[C@@H](CS(C)(=O)=O)c1cnc(-c2ccc3ncnc(Nc4ccc(OCc5cccc(F)c5)c(Cl)c4)c3c2)s1 [Compound 127],–,–,5.89 µM,0.521 µM
C#CCN[C@@H](CS(C)(=O)=O)c1cnc(-c2ccc3ncnc(Nc4ccc(OCc5cccc(F)c5)c(Cl)c4)c3c2)s1 [Compound 128],–,–,6.34 µM,0.672 µM
CON[C@@H](CS(C)(=O)=O)c1cnc(-c2ccc3ncnc(Nc4ccc(OCc5cccc(F)c5)c(Cl)c4)c3c2)s1 [Compound 129],–,–,9.71 µM,0.667 µM
CON(C)[C@@H](CS(C)(=O)=O)c1cnc(-c2ccc3ncnc(Nc4ccc(OCc5cccc(F)c5)c(Cl)c4)c3c2)s1 [Compound 130],–,–,8.59 µM,0.536 µM

Structure (SMILES),IC50 (MCF-7; [1]),IC50 (A431; [2]),IC50 (MCF-7; MCF-7 cells),IC50 (A431; A431 cells)
"CS(=O)(=O)C[C@@H](N)c1cnc(-c2ccc3ncnc(Nc4ccc(OCc5cccc(F)c5)c(Cl)c4)c3c2)s1 [Compound 131, (R)—N-(4-(3-fluorobenzyl-oxy)-3-chlorophenyl)-6-(5-(1-(amino)-2-(methylsulfonyl)ethyl)thiazole-2-yl)quinazolin-4-amine]",8.53 µM,0.582 µM,–,–
CN[C@H](CS(C)(=O)=O)c1cnc(-c2ccc3ncnc(Nc4ccc(OCc5cccc(F)c5)c(Cl)c4)c3c2)s1 [Compound 132],–,–,9.91 µM,0.389 µM
CCN[C@H](CS(C)(=O)=O)c1cnc(-c2ccc3ncnc(Nc4ccc(OCc5cccc(F)c5)c(Cl)c4)c3c2)s1 [Compound 133],–,–,7.89 µM,0.554 µM
CCCN[C@H](CS(C)(=O)=O)c1cnc(-c2ccc3ncnc(Nc4ccc(OCc5cccc(F)c5)c(Cl)c4)c3c2)s1 [Compound 134],–,–,6.51 µM,0.58 µM
CN(C)[C@H](CS(C)(=O)=O)c1cnc(-c2ccc3ncnc(Nc4ccc(OCc5cccc(F)c5)c(Cl)c4)c3c2)s1 [Compound 136],–,–,5.43 µM,0.449 µM
CCN(CC)[C@H](CS(C)(=O)=O)c1cnc(-c2ccc3ncnc(Nc4ccc(OCc5cccc(F)c5)c(Cl)c4)c3c2)s1 [Compound 137],–,–,5.47 µM,0.589 µM
CCCN(CCC)[C@H](CS(C)(=O)=O)c1cnc(-c2ccc3ncnc(Nc4ccc(OCc5cccc(F)c5)c(Cl)c4)c3c2)s1 [Compound 138],–,–,4.6 µM,0.426 µM
CCN(C)[C@H](CS(C)(=O)=O)c1cnc(-c2ccc3ncnc(Nc4ccc(OCc5cccc(F)c5)c(Cl)c4)c3c2)s1 [Compound 139],–,–,4.13 µM,0.452 µM
C=CCN[C@H](CS(C)(=O)=O)c1cnc(-c2ccc3ncnc(Nc4ccc(OCc5cccc(F)c5)c(Cl)c4)c3c2)s1 [Compound 140],–,–,4.02 µM,0.648 µM
C#CCN[C@H](CS(C)(=O)=O)c1cnc(-c2ccc3ncnc(Nc4ccc(OCc5cccc(F)c5)c(Cl)c4)c3c2)s1 [Compound 141],–,–,7.62 µM,0.486 µM
CON[C@H](CS(C)(=O)=O)c1cnc(-c2ccc3ncnc(Nc4ccc(OCc5cccc(F)c5)c(Cl)c4)c3c2)s1 [Compound 142],–,–,7.87 µM,0.499 µM
CON(C)[C@H](CS(C)(=O)=O)c1cnc(-c2ccc3ncnc(Nc4ccc(OCc5cccc(F)c5)c(Cl)c4)c3c2)s1 [Compound 143],–,–,5.09 µM,0.788 µM
"CS(=O)(=O)C[C@@H](N)c1ccc(-c2ccc3ncnc(Nc4ccc5c(cnn5Cc5cccc(F)c5)c4)c3c2)o1 [Compound 144, (S)—N-(1-(3-fluorobenzyl)-1H-indazol-5-yl)-6-(5-(1-(amino)-2-(methylsulfonyl)ethyl)furan-2-yl)quinazolin-4-amine]",4.97 µM,0.711 µM,–,–
"CN[C@H](CS(C)(=O)=O)c1ccc(-c2ccc3ncnc(Nc4ccc5c(cnn5Cc5cccc(F)c5)c4)c3c2)o1 [Compound 145, (S)—N-(1-(3-fluorobenzyl)-1H-indazol-5-yl)-6-(5-(1-(methylamino)-2-(methylsulfonyl)ethyl)furan-2-yl)quinazolin-4-amine]",8.24 µM,0.581 µM,–,–
"CCN[C@H](CS(C)(=O)=O)c1ccc(-c2ccc3ncnc(Nc4ccc5c(cnn5Cc5cccc(F)c5)c4)c3c2)o1 [Compound 146, (S)—N-(1-(3-fluorobenzyl)-1H-indazol-5-yl)-6-(5-(1-(ethylamino)-2-(methylsulfonyl)ethyl)furan-2-yl)quinazolin-4-amine]",5.46 µM,0.489 µM,–,–
